Assays:
[1] = test system: Lolium perenne; assay: Herbicidal bioassay, Lolium perenne / rye grass (% necrosis); type: in vivo
Procedure: (§1) A laboratory bioassay was conducted to screen ten compounds (Fluazifop (25); Ethyl fluazifop (62); five fluazifop analogues: 27, 28, 63, 64 and 65; mesofulfuron (6); and two mesosulfuron analogues: 8 and 61. for activity against Lolium perenne, barley, peas and Chinese cabbage. Compounds were diluted in DMSO. Controls were performed using both DMSO and water.
(§2) Plants were obtained as seeds and were grown to the 2-4 true leaf stage. Plants were grown individually in seed trays. Each plant (in an approximately 3 cm diameter plug) was then detached from the tray for spraying. Environmental conditions were closely monitored and recorded and were within the optimal range of the target species.
(§3) The compounds were screened at a range of six concentrations, eg. 0.05%, 0.01%, 0.005%, 0.001%, 0.0005% and 0.0001%. Treatments will be applied directly onto the plants, using a potter tower.
(§4) One plant of each type will be sprayed using a potter tower. The 4 different types of weeds will be placed in a 10 cm diameter area underneath the potter sprayer and sprayed simultaneously. The growth of the plants and any Phytotoxicity effects will then be assessed at specified growth intervals, according to EPPO guideline PP1/135. Five replicates will be performed for each treatment, for each species.

[2] = test system: Chinese cabbage; assay: Herbicidal bioassay, Chinese cabbage (% necrosis); type: in vivo
Procedure: as §1, §2, §3, §4

CCOC(=O)C(C)Oc1ccc(Oc2ccc(C(F)(F)F)cn2)cc1 (stereo not drawn) [Fluazifop Ethyl ester (62)]
Sum of % necrosis in Rye grass ([1]; Dose 0.000001, Day 0): C (less than 50% necrosis) | Sum of % necrosis in Rye grass ([1]; Dose 0.000001, Day 1): C (less than 50% necrosis) | Sum of % necrosis in Rye grass ([1]; Dose 0.000001, Day 3): C (less than 50% necrosis) | Sum of % necrosis in Rye grass ([1]; Dose 0.000001, Day 7): C (less than 50% necrosis) | Sum of % necrosis in Rye grass ([1]; Dose 0.000001, Day 10): C (less than 50% necrosis) | Sum of % necrosis in Rye grass ([1]; Dose 0.000001, Day 14): C (less than 50% necrosis) | Sum of % necrosis in Rye grass ([1]; Dose 0.000001, Day 21): C (less than 50% necrosis) | Sum of % necrosis in Rye grass ([1]; Dose 0.000005, Day 0): C (less than 50% necrosis) | Sum of % necrosis in Rye grass ([1]; Dose 0.000005, Day 1): C (less than 50% necrosis) | Sum of % necrosis in Rye grass ([1]; Dose 0.000005, Day 3): C (less than 50% necrosis) | Sum of % necrosis in Rye grass ([1]; Dose 0.000005, Day 7): C (less than 50% necrosis) | Sum of % necrosis in Rye grass ([1]; Dose 0.000005, Day 10): C (less than 50% necrosis) | Sum of % necrosis in Rye grass ([1]; Dose 0.000005, Day 14): C (less than 50% necrosis) | Sum of % necrosis in Rye grass ([1]; Dose 0.000005, Day 21): C (less than 50% necrosis) | Sum of % necrosis in Rye grass ([1]; Dose 0.00001, Day 0): C (less than 50% necrosis) | Sum of % necrosis in Rye grass ([1]; Dose 0.00001, Day 1): C (less than 50% necrosis) | Sum of % necrosis in Rye grass ([1]; Dose 0.00001, Day 3): C (less than 50% necrosis) | Sum of % necrosis in Rye grass ([1]; Dose 0.00001, Day 7): C (less than 50% necrosis) | Sum of % necrosis in Rye grass ([1]; Dose 0.00001, Day 10): C (less than 50% necrosis) | Sum of % necrosis in Rye grass ([1]; Dose 0.00001, Day 14): C (less than 50% necrosis) | Sum of % necrosis in Rye grass ([1]; Dose 0.00001, Day 21): C (less than 50% necrosis) | Sum of % necrosis in Rye grass ([1]; Dose 0.00005, Day 0): C (less than 50% necrosis) | Sum of % necrosis in Rye grass ([1]; Dose 0.00005, Day 1): C (less than 50% necrosis) | Sum of % necrosis in Rye grass ([1]; Dose 0.00005, Day 3): C (less than 50% necrosis) | Sum of % necrosis in Rye grass ([1]; Dose 0.00005, Day 7): C (less than 50% necrosis) | Sum of % necrosis in Rye grass ([1]; Dose 0.00005, Day 10): C (less than 50% necrosis) | Sum of % necrosis in Rye grass ([1]; Dose 0.00005, Day 14): C (less than 50% necrosis) | Sum of % necrosis in Rye grass ([1]; Dose 0.00005, Day 21): B (50%-80% necrosis) | Sum of % necrosis in Rye grass ([1]; Dose 0.0001, Day 0): C (less than 50% necrosis) | Sum of % necrosis in Rye grass ([1]; Dose 0.0001, Day 1): C (less than 50% necrosis) | Sum of % necrosis in Rye grass ([1]; Dose 0.0001, Day 3): C (less than 50% necrosis) | Sum of % necrosis in Rye grass ([1]; Dose 0.0001, Day 7): C (less than 50% necrosis) | Sum of % necrosis in Rye grass ([1]; Dose 0.0001, Day 10): C (less than 50% necrosis) | Sum of % necrosis in Rye grass ([1]; Dose 0.0001, Day 14): A (over 80% necrosis) | Sum of % necrosis in Rye grass ([1]; Dose 0.0001, Day 21): A (over 80% necrosis) | Sum of % necrosis in Rye grass ([1]; Dose 0.0005, Day 0): C (less than 50% necrosis) | Sum of % necrosis in Rye grass ([1]; Dose 0.0005, Day 1): C (less than 50% necrosis) | Sum of % necrosis in Rye grass ([1]; Dose 0.0005, Day 3): C (less than 50% necrosis) | Sum of % necrosis in Rye grass ([1]; Dose 0.0005, Day 7): C (less than 50% necrosis) | Sum of % necrosis in Rye grass ([1]; Dose 0.0005, Day 10): C (less than 50% necrosis) | Sum of % necrosis in Rye grass ([1]; Dose 0.0005, Day 14): C (less than 50% necrosis) | Sum of % necrosis in Rye grass ([1]; Dose 0.0005, Day 21): C (less than 50% necrosis) | Sum of % necrosis in Chinese cabbage ([2]; Dose 0.000001, Day 0): C (less than 50% necrosis) | Sum of % necrosis in Chinese cabbage ([2]; Dose 0.000001, Day 1): C (less than 50% necrosis) | Sum of % necrosis in Chinese cabbage ([2]; Dose 0.000001, Day 3): C (less than 50% necrosis) | Sum of % necrosis in Chinese cabbage ([2]; Dose 0.000001, Day 7): C (less than 50% necrosis) | Sum of % necrosis in Chinese cabbage ([2]; Dose 0.000001, Day 10): C (less than 50% necrosis) | Sum of % necrosis in Chinese cabbage ([2]; Dose 0.000001, Day 14): C (less than 50% necrosis) | Sum of % necrosis in Chinese cabbage ([2]; Dose 0.000001, Day 21): C (less than 50% necrosis) | Sum of % necrosis in Chinese cabbage ([2]; Dose 0.000005, Day 0): C (less than 50% necrosis) | Sum of % necrosis in Chinese cabbage ([2]; Dose 0.000005, Day 1): C (less than 50% necrosis) | Sum of % necrosis in Chinese cabbage ([2]; Dose 0.000005, Day 3): C (less than 50% necrosis) | Sum of % necrosis in Chinese cabbage ([2]; Dose 0.000005, Day 7): C (less than 50% necrosis) | Sum of % necrosis in Chinese cabbage ([2]; Dose 0.000005, Day 10): A (over 80% necrosis) | Sum of % necrosis in Chinese cabbage ([2]; Dose 0.000005, Day 14): A (over 80% necrosis) | Sum of % necrosis in Chinese cabbage ([2]; Dose 0.000005, Day 21): A (over 80% necrosis) | Sum of % necrosis in Chinese cabbage ([2]; Dose 0.00001, Day 0): C (less than 50% necrosis) | Sum of % necrosis in Chinese cabbage ([2]; Dose 0.00001, Day 1): C (less than 50% necrosis) | Sum of % necrosis in Chinese cabbage ([2]; Dose 0.00001, Day 3): C (less than 50% necrosis) | Sum of % necrosis in Chinese cabbage ([2]; Dose 0.00001, Day 7): C (less than 50% necrosis) | Sum of % necrosis in Chinese cabbage ([2]; Dose 0.00001, Day 10): B (50%-80% necrosis) | Sum of % necrosis in Chinese cabbage ([2]; Dose 0.00001, Day 14): A (over 80% necrosis) | Sum of % necrosis in Chinese cabbage ([2]; Dose 0.00001, Day 21): A (over 80% necrosis)

From US20150094474A1, “AGRICULTURAL CHEMICALS” (Redx Pharma Ltd., priority 2012, published 2015)
